Data taken from patent US10550080B2 (BRISTOL-MYERS SQUIBB COMPANY, priority 2016, dated 2020).

Legend:
[1] = biological target: NaV1.7 (Homo sapiens (Human), UniProt Q15858); experiment: Automated electrophysiology, IonWorks Barracuda population patch clamp, NaV1.7 current (inactivated-state protocol); format: cell-based; conditions: HEK 293 cells expressing NaV1.7; 600 sec compound incubation; read-out: NaV1.7 Barra IC50
Description: (§1) Automated Electrophysiology: Ion Works Barracuda population patch clamp (PPC). PPC measurements were performed using an IonWorks Barracuda instrument (Molecular Devices Corporation, Union City, Calif.) using either PatchPlate™ PPC substrates (Molecular Devices Corporation) with 64 apertures per well. The ability to average currents from 64 recordings from each well greatly improves data consistency and recording success rates in the measurement of NaV1.7 mediated ionic currents. Calculated leak current was digitally subtracted from the total cell NaV1.7 current for each sample point acquired.
(§2) NaV1.7 currents were elicited by a voltage clamp protocol designed to bias the NaV1.7 channels to their inactivated state as follows. From holding potential of −60 mV cells were briefly hyperpolarized to −100 mV for 1.25 sec, then stepped to −20 mV for 20 sec to inactivate the channels. This was followed by a relatively brief hyperpolarization to −100 mv for 300 ms, then a 20 msec test pulse to −20 mV to elicit the NaV1.7 current used to measure the pharmacology of all test compounds. Compounds were incubated for 600 sec between the pre- and post-compound reads. The external recording solution used was (in mM) 137 NaCl, 4 KCl, 1 MgCl2, 1.8 CaCl2, 10 Hepes, 10 glucose, pH to 7.4 with NaOH, and the internal solution used was (in mM) 100 K-gluconate, 40 KCl, 3.2 zMgCl2, 5 EGTA, 10 HEPES pH to 7.2 with KOH. The same solutions were used to record NaV1.5 currents, with the following voltage clamp protocol. NaV1.5 currents were elicited by a voltage clamp protocol designed to bias the NaV1.5 channels to their inactivated state as follows. From holding potential of −40 mV cells were briefly hyperpolarized to −100 mV for 300 ms, then stepped to −10 mV for 20 sec to inactivate the channels. This was followed by a relatively brief hyperpolarization to −100 mv for 30 ms, then a 20 msec test pulse to −10 mV to elicit the NaV1.5 current used to measure the pharmacology of all test compounds.
(§3) HEK 293 cells expressing NaV1.7 and NaV1.5 channels, were used (Essen Biosciences, Ann Arbor, Mich.). Cells were cultured in T-175 flasks and passaged every 2 to 3 days at 1:3 to 1:6 seeding density dilutions. Cells were grown to 70% to 90% confluence in a flask and removed from the incubator (37° C., 5% CO2) 1 to 3 days after plating. Growth medium was aspirated from the culture flasks. Cells were gently rinsed with 10 ml of PBS (Catalog number: 14190144, Gibco) to remove residual media. Next a total of 2 mL TrypLE (Gibco) solution was added, and the flasks containing cells were sat for 3 min at RT, after which, the cells became visibly rounded and were easily dislodged from the bottom of the flask with a few brief taps on a solid surface. A total of 8 mL of media was added to the flask to inactivate the TrypLE, and the mixture was centrifuged at 910 rpm for 4 min. The cell supernatant was decanted, and the cell pellets were resuspended in 5-6 mL of external solution followed by gentle triturations using a 10 ml pipette, and transferred to a 15 ml conical tube and immediately brought to the IW Barracuda instrument.
(§4) Peak membrane currents were analyzed with IW Barracuda software and exported to Excel for further analysis. Concentration response curve fitting was performed with BMS in-house software. IC50 values were obtained by fits of the Hill equation to the average percent inhibition data plotted versus compound concentration. […] Results are reported in Table 1 (NaV1.7 Barra IC50 in nM and NaV1.5 Barra IC50 in nM).

[2] = biological target: hNaV1.7 (Homo sapiens (Human), UniProt Q15858); experiment: Ligand Binding Assay (LBA), radioligand displacement on hNaV1.7 HEK293 cell membranes; conditions: 0.5 nM [3H] radioligand, 24 hours at room temperature; read-out: NaV1.7 LBA IC50
Description: Ligand Binding Assay (LBA): hNaV1.7 binding affinities were determined with a filtration binding assay using purified membranes from HEK293 cells stably expressing hNaV1.7. HEK293 cells from a 10-stack cell culture flask (approximately 10^10 cells) were dissociated, frozen, and stored at −80° C. To prepare membranes, the frozen cell pellet was thawed and suspended in 6 ml hypotonic lysis buffer (50 mM HEPES, 0.1% mammalian protease inhibitor cocktail). 1 ml of resuspended cells was added to an additional 6 ml of lysis buffer and homogenized with 30 strokes of a tight pestle in a glass homogenizer. Homogenate was centrifuged at 1000×g for 10 minutes at 4° C. and the resulting supernatant was further centrifuged at 38,500×g for 60 minutes at 4° C. The resulting pellet was resuspended in binding buffer (50 mM HEPES, 130 mM NaCl, 5.4 mM KCl, 0.8 mM MgCl2, 5 mM glucose, pH 7.4) and needle homogenized with a 25 gauge needle. Protein concentration was determined with a BCA protein assay. Purified membranes were aliquoted, flash frozen in an ethyl alcohol dry ice bath, and stored at −80° C. To measure displacement of a radiolabeled ligand, 50 μg of purified hNaV1.7 HEK cell membranes were incubated with test compounds (eight concentrations, in duplicate) and 0.5 nM [3H] labeled radioligand in a 96 well plate for 24 hours at room temperature on a shaker. The total binding reaction volume was 250 μl, consisting of 200 μl purified hNaV1.7 HEK cell membranes, 25 μl test compound, and 25 μl radioligand. Non-specific binding was defined by 20 μM of a reference hNaV1.7 inhibitor. Binding reactions were terminated by filtration through GF/B filters presoaked in 0.5% polyethyleneamine. Filters were washed 5 times with 2 ml each of 4′C wash buffer (50 mM Tris-HCl, pH 7.4 at 4° C.). Bound radioactivity captured on the filters was counted on a liquid scintillation counter. Specific binding, expressed as % inhibition, was fit with Graphpad Prism software to determine binding IC50 values. Results are reported in Table 1 (NaV1.7 LBA IC50 in nM).

[3] = biological target: NaV1.5 (Homo sapiens (Human), UniProt Q14524); experiment: Automated electrophysiology, IonWorks Barracuda population patch clamp, NaV1.5 current (inactivated-state protocol); format: cell-based; conditions: HEK 293 cells expressing NaV1.5; read-out: NaV1.5 Barra IC50
Description: as §1, §2, §3, §4

Sequence of NaV1.5 (Q14524 whole entry): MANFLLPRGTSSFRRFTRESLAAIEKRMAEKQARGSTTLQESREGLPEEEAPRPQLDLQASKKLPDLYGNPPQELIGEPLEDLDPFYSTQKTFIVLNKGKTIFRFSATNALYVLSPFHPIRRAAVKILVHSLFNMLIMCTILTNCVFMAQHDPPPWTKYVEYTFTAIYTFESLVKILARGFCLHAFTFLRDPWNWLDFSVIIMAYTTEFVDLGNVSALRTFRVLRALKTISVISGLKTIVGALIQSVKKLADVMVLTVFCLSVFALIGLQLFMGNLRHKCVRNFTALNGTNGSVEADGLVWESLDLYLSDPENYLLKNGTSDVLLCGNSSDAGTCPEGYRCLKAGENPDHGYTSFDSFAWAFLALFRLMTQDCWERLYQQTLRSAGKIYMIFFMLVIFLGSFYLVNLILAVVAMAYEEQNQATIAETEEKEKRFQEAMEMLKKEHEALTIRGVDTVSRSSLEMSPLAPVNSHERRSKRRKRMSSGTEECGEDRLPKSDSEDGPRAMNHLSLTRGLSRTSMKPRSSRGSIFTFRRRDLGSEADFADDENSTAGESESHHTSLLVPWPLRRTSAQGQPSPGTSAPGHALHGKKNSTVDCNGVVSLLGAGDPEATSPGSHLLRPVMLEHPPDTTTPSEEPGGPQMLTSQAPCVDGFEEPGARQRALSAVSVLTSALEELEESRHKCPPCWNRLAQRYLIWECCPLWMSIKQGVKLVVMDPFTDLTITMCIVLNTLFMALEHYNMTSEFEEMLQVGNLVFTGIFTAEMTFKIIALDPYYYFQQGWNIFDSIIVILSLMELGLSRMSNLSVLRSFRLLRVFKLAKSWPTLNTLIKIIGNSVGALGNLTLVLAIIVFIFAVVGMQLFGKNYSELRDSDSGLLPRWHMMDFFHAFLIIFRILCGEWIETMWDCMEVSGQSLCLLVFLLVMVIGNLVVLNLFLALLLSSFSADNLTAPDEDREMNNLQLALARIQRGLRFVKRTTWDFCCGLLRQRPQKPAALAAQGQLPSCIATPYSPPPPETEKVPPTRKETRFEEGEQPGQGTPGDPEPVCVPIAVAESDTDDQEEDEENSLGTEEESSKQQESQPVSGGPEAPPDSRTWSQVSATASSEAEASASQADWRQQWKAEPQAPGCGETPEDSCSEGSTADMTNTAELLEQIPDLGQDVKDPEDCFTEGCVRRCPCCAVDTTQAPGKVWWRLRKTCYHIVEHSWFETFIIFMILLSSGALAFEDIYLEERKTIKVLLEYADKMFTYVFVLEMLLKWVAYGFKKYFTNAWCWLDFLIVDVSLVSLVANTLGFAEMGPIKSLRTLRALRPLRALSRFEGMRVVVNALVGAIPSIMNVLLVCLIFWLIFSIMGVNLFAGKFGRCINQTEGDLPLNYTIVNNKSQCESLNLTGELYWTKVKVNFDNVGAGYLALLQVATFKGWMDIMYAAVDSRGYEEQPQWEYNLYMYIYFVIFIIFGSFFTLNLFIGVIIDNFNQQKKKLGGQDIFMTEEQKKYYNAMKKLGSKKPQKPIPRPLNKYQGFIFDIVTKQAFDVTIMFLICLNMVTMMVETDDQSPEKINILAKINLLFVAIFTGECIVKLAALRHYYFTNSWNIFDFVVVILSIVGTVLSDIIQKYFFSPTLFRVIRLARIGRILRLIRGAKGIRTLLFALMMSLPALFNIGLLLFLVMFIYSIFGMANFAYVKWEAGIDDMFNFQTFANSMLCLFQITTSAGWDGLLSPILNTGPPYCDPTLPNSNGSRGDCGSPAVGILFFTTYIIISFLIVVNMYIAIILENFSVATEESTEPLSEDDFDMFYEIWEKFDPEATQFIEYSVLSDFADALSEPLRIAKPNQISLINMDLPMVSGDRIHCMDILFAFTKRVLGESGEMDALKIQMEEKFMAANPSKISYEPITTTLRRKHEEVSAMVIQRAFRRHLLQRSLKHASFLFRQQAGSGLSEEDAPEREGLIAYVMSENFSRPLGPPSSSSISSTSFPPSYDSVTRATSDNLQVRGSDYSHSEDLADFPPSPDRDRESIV
Sequence of hNaV1.7 (Q15858 whole entry): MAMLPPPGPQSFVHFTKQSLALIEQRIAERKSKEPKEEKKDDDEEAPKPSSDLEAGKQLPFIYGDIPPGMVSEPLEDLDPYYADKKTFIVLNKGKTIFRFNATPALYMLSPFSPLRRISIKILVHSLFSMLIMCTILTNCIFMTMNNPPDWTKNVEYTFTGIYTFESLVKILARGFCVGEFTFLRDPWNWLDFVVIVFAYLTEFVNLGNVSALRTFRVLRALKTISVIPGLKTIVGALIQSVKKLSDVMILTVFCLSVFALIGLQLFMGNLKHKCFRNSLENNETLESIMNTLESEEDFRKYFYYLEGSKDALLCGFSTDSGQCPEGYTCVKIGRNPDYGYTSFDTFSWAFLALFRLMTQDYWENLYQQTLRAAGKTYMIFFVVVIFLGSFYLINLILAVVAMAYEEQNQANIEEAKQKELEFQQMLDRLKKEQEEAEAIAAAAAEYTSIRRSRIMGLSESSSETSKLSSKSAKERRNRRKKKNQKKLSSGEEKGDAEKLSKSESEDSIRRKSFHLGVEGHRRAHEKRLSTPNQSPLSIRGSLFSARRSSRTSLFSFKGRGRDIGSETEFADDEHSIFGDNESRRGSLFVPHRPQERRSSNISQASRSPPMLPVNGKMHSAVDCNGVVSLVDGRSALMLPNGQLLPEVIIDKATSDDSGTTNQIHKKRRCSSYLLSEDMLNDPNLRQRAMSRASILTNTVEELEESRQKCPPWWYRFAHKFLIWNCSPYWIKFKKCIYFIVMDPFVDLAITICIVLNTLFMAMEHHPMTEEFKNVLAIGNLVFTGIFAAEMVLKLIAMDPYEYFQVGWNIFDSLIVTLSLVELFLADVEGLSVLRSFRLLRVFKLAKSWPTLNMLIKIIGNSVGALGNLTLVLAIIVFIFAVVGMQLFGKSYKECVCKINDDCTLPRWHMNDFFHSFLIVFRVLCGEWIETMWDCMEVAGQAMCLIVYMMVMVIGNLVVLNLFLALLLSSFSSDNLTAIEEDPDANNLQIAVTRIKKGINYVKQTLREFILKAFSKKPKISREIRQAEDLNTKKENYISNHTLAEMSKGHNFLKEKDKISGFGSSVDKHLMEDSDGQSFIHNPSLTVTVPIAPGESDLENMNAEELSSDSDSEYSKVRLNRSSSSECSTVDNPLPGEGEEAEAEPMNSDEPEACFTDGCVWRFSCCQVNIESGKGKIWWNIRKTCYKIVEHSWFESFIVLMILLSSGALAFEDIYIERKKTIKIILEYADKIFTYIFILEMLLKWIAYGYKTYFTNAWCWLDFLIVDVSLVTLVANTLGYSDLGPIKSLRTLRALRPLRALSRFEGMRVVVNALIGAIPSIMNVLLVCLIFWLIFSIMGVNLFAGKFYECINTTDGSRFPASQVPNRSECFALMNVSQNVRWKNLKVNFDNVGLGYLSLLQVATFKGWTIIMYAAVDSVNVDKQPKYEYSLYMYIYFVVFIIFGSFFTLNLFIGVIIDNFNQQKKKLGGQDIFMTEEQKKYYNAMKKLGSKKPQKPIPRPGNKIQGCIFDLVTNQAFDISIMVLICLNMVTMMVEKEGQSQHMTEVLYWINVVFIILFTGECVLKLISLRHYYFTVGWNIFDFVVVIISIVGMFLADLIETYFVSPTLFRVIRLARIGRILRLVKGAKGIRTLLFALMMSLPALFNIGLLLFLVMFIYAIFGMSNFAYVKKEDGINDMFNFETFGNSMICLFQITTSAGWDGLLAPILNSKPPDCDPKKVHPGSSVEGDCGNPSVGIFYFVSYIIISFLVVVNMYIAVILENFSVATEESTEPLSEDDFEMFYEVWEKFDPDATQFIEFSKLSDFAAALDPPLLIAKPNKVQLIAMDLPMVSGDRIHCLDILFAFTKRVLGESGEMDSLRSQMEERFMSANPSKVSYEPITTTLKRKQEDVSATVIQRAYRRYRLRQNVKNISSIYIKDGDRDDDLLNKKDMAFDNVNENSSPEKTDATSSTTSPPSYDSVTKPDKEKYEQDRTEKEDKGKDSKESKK
Sequence of NaV1.7 (Q15858 whole entry): as above

Row | SMILES | IC50 [1] | IC50 [2] | IC50 [3]
1 | Cn1cc(-c2ccc(C(F)(F)F)cc2Cl)c2ccc(C(=O)NS(C)(=O)=O)cc21 [Example 11, 3-(2-Chloro-4-(trifluoromethyl)phenyl)-1-methyl-N-(methylsulfonyl)-1H-indole-6-carboxamide] | 604 nM | 750 nM | 8640 nM
2 | Cn1cc(-c2ccc(C(F)(F)F)cc2)c2ccc(C(=O)NS(=O)(=O)c3cccs3)cc21 [Example 20, 1-Methyl-N-(thiophen-2-ylsulfonyl)-3-(4-(trifluoromethyl)phenyl)-1H-indole-6-carboxamide] | 419 nM | 361 nM | 3860 nM
3 | CC(C)COc1ncc(-c2nn(C)c3cc(C(=O)NS(C)(=O)=O)ccc23)cc1Cl [Example 39, 3-(5-Chloro-6-isobutoxypyridin-3-yl)-1-methyl-N-(methylsulfonyl)-1H-indazole-6-carboxamide] | 66 nM | 67 nM | 6510 nM
4 | CC(C)COc1ncc(-c2cn(C)c3cc(C(=O)NS(C)(=O)=O)ccc23)cc1Cl [Example 2, 3-(5-Chloro-6-isobutoxypyridin-3-yl)-1-methyl-N-(methylsulfonyl)-1H-indole-6-carboxamide] | 90 nM | 91 nM | 18300 nM
5 | CCS(=O)(=O)NC(=O)c1ccc2c(-c3cnc(OCC(C)C)c(Cl)c3)cn(C)c2c1 [Example 36, 3-(5-Chloro-6-isobutoxypyridin-3-yl)-N-(ethylsulfonyl)-1-methyl-1H-indole-6-carboxamide] | 154 nM | 38 nM | 5670 nM
6 | Cn1cc(-c2ccc(C(F)(F)F)cc2)c2ccc(C(=O)NS(=O)(=O)C3CC3)cc21 [Example 18, N-(cyclopropylsulfonyl)-1-methyl-3-(4-(trifluoromethyl)phenyl)-1H-indole-6-carboxamide] | 109 nM | 77 nM | 8720 nM
7 | Cc1ccc(-c2cn(C)c3cc(C(=O)NS(C)(=O)=O)ccc23)cc1 [Example 10, 1-Methyl-N-(methylsulfonyl)-3-(p-tolyl)-1H-indole-6-carboxamide] | 739 nM | 1030 nM | > 30000 nM
8 | CCc1cccc(-c2cn(C)c3cc(C(=O)NS(C)(=O)=O)ccc23)c1 [Example 17, 3-(3-Ethylphenyl)-1-methyl-N-(methylsulfonyl)-1H-indole-6-carboxamide] | 220 nM | 440 nM | > 30000 nM
9 | Cn1cc(-c2cccc(C(F)(F)F)c2)c2ccc(C(=O)NS(C)(=O)=O)cc21 [Example 13, 1-Methyl-N-(methylsulfonyl)-3-(3-(trifluoromethyl)phenyl)-1H-indole-6-carboxamide] | 1420 nM | 290 nM | > 30000 nM
10 | Cn1cc(-c2ccc(C(F)(F)F)cc2)c2ccc(C(=O)NS(=O)(=O)c3ccc(F)c(F)c3)cc21 [Example 21, N-((3,4-difluorophenyl)sulfonyl)-1-methyl-3-(4-(trifluoromethyl)phenyl)-1H-indole-6-carboxamide] | > 30000 nM | > 30000 nM | 18100 nM
11 | CC(C)COc1ncc(-c2cn(C)c3cc(C(=O)NS(=O)(=O)C(C)C)ccc23)cc1Cl [Example 37, 3-(5-Chloro-6-isobutoxypyridin-3-yl)-N-(isopropylsulfonyl)-1-methyl-1H-indole-6-carboxamide] | 458 nM | 207 nM | 14000 nM
12 | Cn1cc(-c2cnc(OCC3CC3)c(Cl)c2)c2ccc(C(=O)NS(C)(=O)=O)cc21 [Example 34, 3-(5-Chloro-6-(cyclopropylmethoxy)pyridin-3-yl)-1-methyl-N-(methylsulfonyl)-1H-indole-6-carboxamide] | 189 nM | 270 nM | 8370 nM
13 | COc1ncccc1-c1cn(C)c2cc(C(=O)NS(C)(=O)=O)ccc12 [Example 6, 3-(2-Methoxypyridin-3-yl)-1-methyl-N-(methylsulfonyl)-1H-indole-6-carboxamide] | > 30000 nM | > 30000 nM | > 30000 nM
14 | Cn1cc(-c2cnc(OCC3CC3)c(Cl)c2)c2ccc(C(=O)NS(=O)(=O)C3CC3)cc21 [Example 35, 3-(5-Chloro-6-(cyclopropylmethoxy)pyridin-3-yl)-N-(cyclopropylsulfonyl)-1-methyl-1H-indole-6-carboxamide] | 86 nM | 52 nM | 15100 nM
15 | Cn1cc(-c2ccc(OC(F)(F)F)cc2)c2ccc(C(=O)NS(C)(=O)=O)cc21 [Example 4, 1-Methyl-N-(methylsulfonyl)-3-(4-(trifluoromethoxy)phenyl)-1H-indole-6-carboxamide] | 80 nM | 243 nM | 18300 nM
16 | CC(C)COc1ncc(-c2cn(C(C)C)c3cc(C(=O)NS(C)(=O)=O)ccc23)cc1Cl [Example 29, 3-(5-Chloro-6-isobutoxypyridin-3-yl)-1-isopropyl-N-(methylsulfonyl)-1H-indole-6-carboxamide] | 703 nM | 89 nM | 1490 nM
17 | Cn1cc(-c2ccc(C(F)(F)F)cc2)c2ccc(C(=O)NS(C)(=O)=O)cc21 [Example 1, 1-Methyl-N-(methylsulfonyl)-3-(4-(trifluoromethyl)phenyl)-1H-indole-6-carboxamide] | 85 nM | 422 nM | 19600 nM
18 | CC(C)COc1ncc(-c2cn(C)c3cc(C(=O)NS(=O)(=O)C4CC4)c(F)cc23)cc1Cl [Example 43, 3-(5-Chloro-6-isobutoxypyridin-3-yl)-N-(cyclopropylsulfonyl)-5-fluoro-1-methyl-1H-indole-6-carboxamide] | 310 nM | 3.4 nM | 4850 nM
19 | Cn1cc(-c2cccc(F)c2F)c2ccc(C(=O)NS(C)(=O)=O)cc21 [Example 3, 3-(2,3-Difluorophenyl)-1-methyl-N-(methylsulfonyl)-1H-indole-6-carboxamide] | 2860 nM | 4940 nM | > 30000 nM
20 | Cn1cc(-c2ccc(C(F)F)cc2)c2cc(F)c(C(=O)NS(C)(=O)=O)cc21 [Example 48, 3-(4-(Difluoromethyl)phenyl)-5-fluoro-1-methyl-N-(methylsulfonyl)-1H-indole-6-carboxamide] | 91 nM | 956 nM | > 30000 nM
